Test results taken from PubChem BioAssay (NCI).
Where “and” joins values, the source holds several entries; their conditions need not be identical. Equal entries are not always repeated.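 48-hour exposure; five concentrations; linearly interpolated endpoints. GI50 marks 50% less growth. TGI marks complete inhibition of growth.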

Columns and labels:
Assay in all cases: NCI tumour cell line growth inhibition, 48 h
CCRF-CEM leukemia = system: CCRF-CEM leukemia
DU-145 prostate = system: DU-145 prostate
HOP-62 NSCLC = system: HOP-62 NSCLC
HS 578T breast = system: HS 578T breast
MALME-3M melanoma = system: MALME-3M melanoma
NCI/ADR-RES ovarian = system: NCI/ADR-RES ovarian
RPMI-8226 leukemia = system: RPMI-8226 leukemia
SN12C renal = system: SN12C renal
SNB-19 CNS = system: SNB-19 CNS
UACC-257 melanoma = system: UACC-257 melanoma

| Compound | GI50 (CCRF-CEM leukemia) | TGI (CCRF-CEM leukemia) | GI50 (DU-145 prostate) | TGI (DU-145 prostate) | GI50 (HOP-62 NSCLC) | GI50 (HS 578T breast) | TGI (HS 578T breast) [µM] | GI50 (MALME-3M melanoma) | TGI (MALME-3M melanoma) | GI50 (NCI/ADR-RES ovarian) | TGI (NCI/ADR-RES ovarian) | GI50 (RPMI-8226 leukemia) | TGI (RPMI-8226 leukemia) | GI50 (SN12C renal) | TGI (SN12C renal) | GI50 (SNB-19 CNS) | TGI (SNB-19 CNS) | GI50 (UACC-257 melanoma) | TGI (UACC-257 melanoma) | TGI (HOP-62 NSCLC) |
| --- | --- | --- | --- | --- | --- | --- | --- | --- | --- | --- | --- | --- | --- | --- | --- | --- | --- | --- | --- | --- |
| CC(=O)Nc1ccc(CC[C@H]2CCC/C=C/[C@@H]3C[C@H](O)C[C@H]3[C@H](O)/C=C/C(=O)O2)cc1 | 320 nM | > 100 µM | 366 nM | 4.2 µM | 281 nM | 67.4 nM | > 93.7 | 257 nM | 0.573 µM | 819 nM | > 100 µM | 222 nM | 0.591 µM | 333 nM | > 100 µM | 231 nM | > 100 µM | 59.6 nM | > 100 µM | – |
| CC(C)CC(NC(=O)C(O)C(N)Cc1ccccc1)C(=O)O (centres undefined) | – | > 100 µM | – | > 100 µM | – | – | > 100 | – | > 100 µM | – | > 100 µM | – | > 100 µM | – | > 100 µM | – | > 100 µM | – | > 100 µM | > 100 µM |
| COc1cc2c(cc1OCCCCCOc1ccc(-c3nc4ccccc4s3)cc1)N=C[C@@H]1CCCN1C2=O | 2480 nM | > 100 µM | 2080 nM | 13 µM | 1620 nM | 2020 nM | 7.68 | 12500 nM | 37.9 µM | 2550 nM | 15.6 µM | 1030 nM | 4.14 µM | 2950 nM | 18.9 µM | 5080 nM | 20.8 µM | 6610 nM | 21.2 µM | 7.59 µM |
| O=C(Nc1ccccc1/C=C/c1n[nH]c2ccccc12)c1ccccc1 | 4050 nM | 22.3 µM | 2600 nM | 8.23 µM | 2150 nM | 3640 nM | 17.7 | 4050 nM | 12 µM | 4690 nM | 20 µM | 3070 nM | 12.8 µM | 2000 nM | 5.4 µM | 5930 nM | 22.5 µM | 2360 nM | 16.5 µM | 6.13 µM |
| CC[C@@H]1C(=O)N(C)c2cnc(Nc3ccc(C(=O)NC4CCC(N5CCN(CC6CC6)CC5)CC4)cc3OC)nc2N1C(C)C (some centres undefined) | 9.74 nM and < 10 nM | > 7.37 µM and 4.22 µM | 11.8 nM and 37.9 nM | > 10 µM and 16.8 µM | 20.8 nM and 34 nM | 32.3 nM and 111 nM | 1.97 | 607 nM and 1390 nM | > 4.91 µM and 3.08 µM | 249 nM and 245 nM | > 10 µM and 28.9 µM | 38.2 nM and 55.8 nM | 1.62 µM and 1.89 µM | 91.7 nM and 173 nM | > 10 µM and 15.1 µM | 35.6 nM and 56.6 nM | > 10 µM and 18 µM | 220 nM and 46 nM | > 5.86 µM and 1.75 µM | > 8.64 µM and 3.93 µM |
| Cc1cc(NC(=O)NCCCOc2ccc(N3C(N)=NC(N)=NC3(C)C)cc2Cl)ccc1S(=O)(=O)F | 561 nM | > 63.5 µM | 786 nM | > 62.4 µM | 2240 nM | 2770 nM | 35 | 1840 nM | 25.4 µM | > 100000 nM | > 100 µM | 5780 nM | > 100 µM | 558 nM | > 100 µM | 920 nM | > 54.7 µM | 4090 nM | 30.9 µM | 19.6 µM |
| O=C(O)c1c2c(c(O)c3c1CN(C1CCCCC1)CO3)OCN(C1CCCCC1)C2 | – | 55.7 µM | – | > 100 µM | – | – | > 100 | – | > 100 µM | – | > 100 µM | – | > 100 µM | – | 72.9 µM | – | > 100 µM | – | > 100 µM | > 100 µM |
